Legend:
Assay type in all cases: functional
K562 = test: Growth inhibition of human K562 cells assessed as cell growth at 10 uM after 48 hrs by SRB assay; conditions: K562, 48 h, read-out: Activity
[1] = Growth inhibition of human […] cells assessed as cell growth at 10 uM after 48 hrs by SRB assay; conditions: read-out: Activity
HOP-92 [2] = test: Growth inhibition of human HOP92 cells after 48 hrs by […] growth inhibition assay; conditions: HOP-92, 48 h
NCI-H460 = test: Growth inhibition of human NCI-H460 cells after 48 hrs by […] growth inhibition assay; conditions: NCI-H460, 48 h
M14 [3] = test: Growth inhibition of human M14 cells after 48 hrs by […] growth inhibition assay; conditions: M14, 48 h
SK-MEL-28 = test: Growth inhibition of human SK-MEL-28 cells after 48 hrs by […] growth inhibition assay; conditions: SK-MEL-28, 48 h
SK-MEL-5 = test: Growth inhibition of human SK-MEL-5 cells after 48 hrs by […] growth inhibition assay; conditions: SK-MEL-5, 48 h
UACC-257 = test: Growth inhibition of human UACC257 cells after 48 hrs by […] growth inhibition assay; conditions: UACC-257, 48 h
U-251 [4] = test: Growth inhibition of human U251 cells after 48 hrs by […] growth inhibition assay; conditions: U-251, 48 h
SK-OV-3 = test: Growth inhibition of human SKOV3 cells after 48 hrs by […] growth inhibition assay; conditions: SK-OV-3, 48 h
MCF7 = test: Growth inhibition of human MCF7 cells after 48 hrs by […] growth inhibition assay; conditions: MCF7, 48 h
SNB-75 [5] = test: Growth inhibition of human SNB75 cells assessed as cell growth at 0.1 uM after 48 hrs by SRB assay; conditions: SNB-75, 48 h, read-out: Activity
RXF 393 [6] = test: Growth inhibition of human RXF393 cells assessed as cell growth at 0.1 uM after 48 hrs by SRB assay; conditions: RXF 393, 48 h, read-out: Activity
TK-10 [7] = test: Growth inhibition of human TK10 cells assessed as cell growth at 0.1 uM after 48 hrs by SRB assay; conditions: TK-10, 48 h, read-out: Activity
SNB-75 [8] = test: Growth inhibition of human SNB75 cells assessed as cell growth at 10 uM after 48 hrs by SRB assay; conditions: SNB-75, 48 h, read-out: Activity
U-251 [9] = test: Growth inhibition of human U251 cells assessed as cell growth at 10 uM after 48 hrs by SRB assay; conditions: U-251, 48 h, read-out: Activity
M14 [10] = test: Growth inhibition of human M14 cells assessed as cell growth at 10 uM after 48 hrs by SRB assay; conditions: M14, 48 h, read-out: Activity
786-0 = test: Growth inhibition of human 786-0 cells assessed as cell growth at 10 uM after 48 hrs by SRB assay; conditions: 786-0, 48 h, read-out: Activity
BT-549 = test: Growth inhibition of human BT549 cells assessed as cell growth at 10 uM after 48 hrs by SRB assay; conditions: BT-549, 48 h, read-out: Activity
HOP-92 [11] = test: Growth inhibition of human HOP92 cells assessed as cell growth at 100 uM after 48 hrs by SRB assay; conditions: HOP-92, 48 h, read-out: Activity
SF-295 = test: Growth inhibition of human SF295 cells assessed as cell growth at 100 uM after 48 hrs by SRB assay; conditions: SF-295, 48 h, read-out: Activity
M14 [12] = test: Growth inhibition of human M14 cells assessed as cell growth at 100 uM after 48 hrs by SRB assay; conditions: M14, 48 h, read-out: Activity
OVCAR-4 = test: Growth inhibition of human OVCAR4 cells assessed as cell growth at 100 uM after 48 hrs by SRB assay; conditions: OVCAR-4, 48 h, read-out: Activity
TK-10 [13] = test: Growth inhibition of human TK10 cells assessed as cell growth at 100 uM after 48 hrs by SRB assay; conditions: TK-10, 48 h, read-out: Activity
CCRF-CEM = test: Growth inhibition of human CCRF-CEM cells assessed as cell growth at 1 mM after 48 hrs by SRB assay; conditions: read-out: Activity
HCT-116 = test: Growth inhibition of human HCT116 cells assessed as cell growth at 1 mM after 48 hrs by SRB assay; conditions: HCT-116, 48 h, read-out: Activity
SK-MEL-2 = test: Growth inhibition of human SK-MEL-2 cells assessed as cell growth at 1 mM after 48 hrs by SRB assay; conditions: SK-MEL-2, 48 h, read-out: Activity
RXF 393 [14] = test: Growth inhibition of human RXF393 cells assessed as cell growth at 1 mM after 48 hrs by SRB assay; conditions: RXF 393, 48 h, read-out: Activity
EKVX = test: Growth inhibition of human EKVX cells assessed as cell growth at 1 uM after 48 hrs by SRB assay; conditions: read-out: Activity
UACC-62 = test: Growth inhibition of human UACC62 cells assessed as cell growth at 1 uM after 48 hrs by SRB assay; conditions: UACC-62, 48 h, read-out: Activity
[15] = read-out: LC50 (the source's name)
[16] = read-out: pLC50 (the source's name) (converted)

CNC(=O)NC[C@H]1O[C@@H](n2cnc3c(NC(=O)Nc4ccccc4)ncnc32)[C@H](O[Si](C)(C)C(C)(C)C)[C@@H]1CC(=O)N(C)OC
growth at 10 µM (K562): 82% | growth at 10 µM [1]: 69% | GI50 (HOP-92 [2]; read-out: GI50): 2.71 µM | CC50 (HOP-92 [2]; [15]): > 100 µM | TGI (HOP-92 [2]; read-out: TGI): 24.3 µM | GI50 (HOP-92 [2]; read-out: pGI50 (converted)): 2.69 µM | CC50 (HOP-92 [2]; [16]): > 100 µM | TGI (HOP-92 [2]; read-out: pTGI (converted)): 24 µM | GI50 (NCI-H460; read-out: GI50): 7.49 µM | CC50 (NCI-H460; [15]): > 100 µM | TGI (NCI-H460; read-out: TGI): > 100 µM | GI50 (NCI-H460; read-out: pGI50 (converted)): 7.41 µM | CC50 (NCI-H460; [16]): > 100 µM | TGI (NCI-H460; read-out: pTGI (converted)): > 100 µM | GI50 (M14 [3]; read-out: GI50): 15.2 µM | CC50 (M14 [3]; [15]): > 100 µM | TGI (M14 [3]; read-out: TGI): > 100 µM | GI50 (M14 [3]; read-out: pGI50 (converted)): 15.1 µM | CC50 (M14 [3]; [16]): > 100 µM | TGI (M14 [3]; read-out: pTGI (converted)): > 100 µM | GI50 (SK-MEL-28; read-out: GI50): 7.77 µM | CC50 (SK-MEL-28; [15]): > 100 µM | TGI (SK-MEL-28; read-out: TGI): > 100 µM | GI50 (SK-MEL-28; read-out: pGI50 (converted)): 7.76 µM | CC50 (SK-MEL-28; [16]): > 100 µM | TGI (SK-MEL-28; read-out: pTGI (converted)): > 100 µM | GI50 (SK-MEL-5; read-out: GI50): 5.81 µM | CC50 (SK-MEL-5; [15]): > 100 µM | TGI (SK-MEL-5; read-out: TGI): > 100 µM | GI50 (SK-MEL-5; read-out: pGI50 (converted)): 5.75 µM | CC50 (SK-MEL-5; [16]): > 100 µM | TGI (SK-MEL-5; read-out: pTGI (converted)): > 100 µM | GI50 (UACC-257; read-out: GI50): 22.6 µM | CC50 (UACC-257; [15]): > 100 µM | TGI (UACC-257; read-out: TGI): > 100 µM | GI50 (UACC-257; read-out: pGI50 (converted)): 22.4 µM | CC50 (UACC-257; [16]): > 100 µM | TGI (UACC-257; read-out: pTGI (converted)): > 100 µM | GI50 (U-251 [4]; read-out: GI50): 5.66 µM | CC50 (U-251 [4]; [15]): > 100 µM | TGI (U-251 [4]; read-out: TGI): > 100 µM | GI50 (U-251 [4]; read-out: pGI50 (converted)): 5.62 µM | CC50 (U-251 [4]; [16]): > 100 µM | TGI (U-251 [4]; read-out: pTGI (converted)): > 100 µM | GI50 (SK-OV-3; read-out: GI50): 52.7 µM | CC50 (SK-OV-3; [15]): > 100 µM | TGI (SK-OV-3; read-out: TGI): > 100 µM | GI50 (SK-OV-3; read-out: pGI50 (converted)): 52.5 µM | CC50 (SK-OV-3; [16]): > 100 µM | TGI (SK-OV-3; read-out: pTGI): > 100 µM | GI50 (MCF7; read-out: GI50): 5.59 µM | CC50 (MCF7; [15]): > 100 µM | TGI (MCF7; read-out: TGI): > 100 µM | GI50 (MCF7; read-out: pGI50 (converted)): 5.62 µM | CC50 (MCF7; [16]): > 100 µM | TGI (MCF7; read-out: pTGI (converted)): > 100 µM | growth at 0.1 µM (SNB-75 [5]): 94% | growth at 0.1 µM (RXF 393 [6]): 103% | growth at 0.1 µM (TK-10 [7]): 99% | growth at 10 µM (SNB-75 [8]): 84% | growth at 10 µM (U-251 [9]): 90% | growth at 10 µM (M14 [10]): 91% | growth at 10 µM (786-0): 93% | growth at 10 µM (BT-549): 96% | growth at 100 µM (HOP-92 [11]): 27% | growth at 100 µM (SF-295): 48% | growth at 100 µM (M14 [12]): 57% | growth at 100 µM (OVCAR-4): 60% | growth at 100 µM (TK-10 [13]): 65% | growth at 1000 µM (CCRF-CEM): 23% | growth at 1000 µM (HCT-116): 6% | growth at 1000 µM (SK-MEL-2): -5% | growth at 1000 µM (RXF 393 [14]): -36% | growth at 1 µM (EKVX): 95% | growth at 1 µM (UACC-62): 107%

— ChEMBL document CHEMBL1681651, “A broad spectrum anticancer nucleoside with selective toxicity against human colon cells in vitro” (2011)
